# Columns and labels:
# [1] = tested on: OVA-specific immune response; experiment: Example 11: in vivo immune response after footpad vaccination with OVA formulations; set-up: species or system mice
# Protocol: FIG. 14: Mice were vaccinated at day 0 and day 28 with 10 μg OVA equivalent of the various forms and combinations shown, and were sacrificed on day 35 for analysis. The intensity of the CD8+ T cell response was judged by measuring the frequency of […] (SEQ ID NO. 1) pentamer-binding cells.
# FIG. 15: Mice were vaccinated at day 0 and day 28 with 10 μg OVA equivalent of the various forms and combinations shown, and were sacrificed on day 35 for analysis. The cytokine responsiveness of cells in the LN was determined after antigen re-exposure. […] Separation of the formulation into its component parts was not effective: of particular note, free antigen mixed with but not conjugated to the p(Man-TLR) nanoadjuvant (OVA+pManTLR, yellow) was not nearly as effective, showing the need for the conjugate.
# FIG. 16: The humoral response to vaccination was characterized by measuring the frequency of antibody-producing plasma cells and the frequency of Tfh cells in the spleen, and the antibody titers in the blood.
# Mice were vaccinated in the four footpads on day 0 and 28 with either OVA-p(Man-TLR), OVA and mTLR, OVA conjugated to p(Man) (OVA-p(Man)) and mTLR, OVA+p(Man-TLR) or just p(Man-TLR). Animals treated with formulations containing OVA received 10 μg of OVA in its free or conjugated form, and animals treated with formulations containing TLR received 30 μg of TLR in its free or […] form. The animals were sacrificed on day 35 and the spleens and lymph nodes were analyzed for the resulting immune response.
# B16F10/OVA tumors = experiment: Example 13: cancer vaccination in mice bearing B16F10/OVA tumors; assay type: in vivo, C57BL/6 mice
# Protocol: In order to determine if OVA-p(Man-TLR) conjugates could inhibit the growth of OVA-expressing tumors, mice bearing B16F10/OVA tumors (that is, B16F10 melanoma cells expressing the xeno-antigen OVA as a model tumor antigen) were treated with OVA-p(Man-TLR). 10^5 B16F10/OVA cells were inoculated subcutaneously (s.c.) between the scapulae in C57BL/6 mice on day 0 and left to engraft and grow for 4 days. On day 4, 7, and 14, mice were administered saline or vaccinated with OVA-p(Man-TLR) or OVA and free p(Man-TLR). Animals treated with OVA received 10 μg OVA and 40 μg of TLR.
# DCs (CD11c+ cells) = experiment: Example 10: in vivo DC activation in draining lymph nodes after footpad injection; set-up: species or system mice; settings: footpads, 50 μg fluorescently-labeled OVA, 24 h
# Excerpt: Activation is highest in DCs that collect the formulation and thus are also antigen-positive. Thus, both antigen and adjuvant are co-delivered to the same DCs, which are then the cells that are activated. This is one of the benefits of selecting TLR7 as an adjuvant target, based on its intracellular, endosomal localization.
# In order to be an effective adjuvant/delivery system for vaccine development, p(Man-TLR) conjugates preferably target antigens to APCs and activate these cells in vivo. Mice were injected in the footpads with 50 μg of fluorescently-labeled OVA conjugated to p(Man-TLR) or free non-conjugated fluorescently-labeled OVA. After 24 h, the draining lymph nodes of these animals were collected and processed into single cells suspensions. The lymphocytes were then analyzed via flow cytometry for the presence of the co-stimulatory molecule markers CD86 and CD80 on APCs. […] Furthermore, CD11c+ cells that had taken up OVA-p(Man-TLR) conjugates (i.e., Protein+CD11c+ cells) had higher levels of expression of CD80 and CD86 as compared to the expression of CD80 and CD86 on the total CD11c+ population of mice treated with OVA-p(Man-TLR).
# [2] = tested on: OVA-specific immune response; experiment: OVA vaccination day 0 and 28, humoral immune response; assay type: in vivo, mice
# Protocol: (§1) Mice were immunized on day 0 and 28 with one of […] formulations: 1.) 10 μg of OVA+30 μg, 2.) p(Man-TLR) (30 μg equivalent of TLR7-MA), 3.) 10 μg of OVA and unconjugated p(Man-TLR) (30 μg equivalent of TLR7-MA), 4.) 10 μg of OVA-p(Man) conjugate with 30 μg of TLR7-MA, or 5.) 10 μg of OVA-p(Man-TLR).
# In order to initiate protection against extracellular microorganisms and to prevent the spread of intracellular infections, effective vaccines preferably induce a strong humoral immune response. The ability of OVA-p(Man-TLR) to mount an effective humoral immune response was analyzed by determining the percentage of T follicular helper (Tfh) cells in the LN and spleen, the number of antigen specific plasma cells in the spleen, and the OVA specific antibody titers of vaccinated mice. […] Given these impressive results, we analyzed the blood of vaccinated animals for total OVA-specific IgG titers as well as OVA-specific IgG2C titers.
# [3] = tested on: OVA-specific immune response; experiment: OVA vaccination day 0 and 28, T cell response after restimulation; assay type: in vivo, mice
# Protocol: as §1
# Given the ability of p(Man-TLR) to activate BMDCS and target tethered proteins to various DC-subsets, mice were treated with OVA-p(Man-TLR) and the OVA-specific immune response was analyzed. Animals were treated on day 0 and 28 with an i.d. injection of OVA-p(Man-TLR), OVA-p(Man)+TLR7-MA, OVA and unconjugated p(Man-TLR), p(Man-TLR), or OVA+CpG. Mice receiving formulations that contained either free or polymer-conjugated OVA were treated with 10 μg of OVA on days 0 and 28. Mice treated with formulations containing either TLR7-MA or p(man-TLR) either free or OVA conjugated received 30 μg of TLR7-agonist as TLR7-MA or the total weight of TLR7-MA monomer units in the polymer on days 0 and 28. Mice treated with OVA and CPG received 30 μg of CPG on days 0 and 28. After 35 days, the lymphocytes from the spleen and lymph node were harvested and restimulated with either whole OVA or the CD8 immunodominant peptide […].
substance,measurement,setting,value
OVA-p(Man-TLR): model antigen ovalbumin (OVA) conjugated to p(Man-TLR) via self-immolative linker,OVA-specific total IgG vs non-conjugate vaccine (OVA+pMan-TLR),[1]; FIG. 16,elevated by more than an order of magnitude
same,CD8+ and CD4+ T cells positive for both TNFα and IFNγ upon restimulation vs other treatments,[1]; day 35,significantly more CD8+ and CD4+ T cells that are positive for both the proinflammatory cytokines TNFα and IFNγ
same,OVA-specific antibodies in the blood vs other treatments,[1]; day 35,significantly more OVA-specific antibodies in the blood
same,splenic IgG producing plasma cells and T follicular helper cells vs other treatments,[1]; day 35,significantly more splenic IgG producing plasma cells and T follicular helper cells
same,OVA pentamer+ cells in lymph nodes and spleens vs other therapies,"[1]; footpads day 0 and 28, 10 μg OVA, 30 μg TLR, day 35",significantly more OVA pentamer+ cells in the lymph nodes and spleens
same,growth of B16/OVA tumors,"B16F10/OVA tumors; treated day 4, 7 and 14, 10 μg OVA and 40 μg of TLR",capable of inhibiting the growth of B16/OVA tumors
same,pentamer+CD8+ cells in the draining lymph nodes vs OVA+p(Man-TLR),B16F10/OVA tumors; tumor-bearing mice,induced significantly more pentamer+CD8+ cells in the draining lymph nodes
same,percentage of OVA pentamer+ cells in the draining lymph nodes,"B16F10/OVA tumors; tumor-bearing mice, FIG. 20",increased the percentage of OVA pentamer+ cells in the draining lymph nodes
same,CD80 and CD86 expression on CD11c+ cells of draining lymph nodes vs free OVA,DCs (CD11c+ cells),express significantly more CD80 and CD86
same,total OVA-specific IgG and IgG2C titers vs other vaccine formulations,[2]; blood of vaccinated animals,significant increase in both total IgG and IgG2C titers
same,increase in number of IgG-producing plasma cells vs OVA+p(Man-TLR) or other formulations,"[2]; day 35, spleen, FIG. 11C",more than 2 fold
same,percentage of Tfh in lymph node and spleen vs other treatments,"[2]; day 35, vaccination on days 0 and 28",significantly increases the percentage of Tfh in the lymph node and spleen
same,IFNγ+CD4+ T cells after restimulation vs other treatments,"[3]; i.d. day 0 and 28, 10 μg OVA, 30 μg TLR7-agonist, day 35",significantly more IFNγ+CD4+ T cells
same,IFNγ+CD8 T cells in the lymph nodes vs OVA-p(Man)+TLR7-MA and OVA+CpG,"[3]; i.d. day 0 and 28, day 35",increased the number of IFNγ+CD8 T cells in the lymph nodes
same,TNFα positive CD8+ and CD4+ T cells in restimulated splenocytes vs other TLR7-MA or p(Man-TLR) formulations,"[3]; i.d. day 0 and 28, day 35",significantly increased the number of CD8+ and CD4+ T cells that are positive for TNFα

# From patent publication US11484599B2, “Polymer conjugate vaccines” (The University of Chicago, priority 2015, dated 2022)
